# Counter-ions that a name gives are not always drawn.
# Target: T1, human CMR-1 (Homo sapiens, UniProt Q7Z2W7)
# T1 construct: expressed in transfected cells
# Experiment: Measurement of the menthol-induced Ca2+ influx in HEK293 cells expressing CMR-1 receptor (Assay 1)
# Assay type: cell-based
# Conditions: HEK293 cells stably expressing human CMR-1; preincubation with compound, menthol stimulation; fluo4-AM fluorescence
# Text: Measurement of the Menthol-Induced Ca^2+ Influx in […] Cell Expressing CMR-1 Receptor (Assay 1).
# A cell-based calcium influx assay using HEK293 cells stably expressing human CMR-1 is used to identify CMR-1 receptor-antagonists. Menthol, a CMR-1 specific agonist, is used for stimulation of these cells, inducing an increase in intracellular calcium. This menthol-induced Ca^2+ increase is traced by fluorescence measurement. Therefore the cells are loaded with fluo4-AM prior to stimulation. For testing inhibitors the cells are preincubated with various concentrations of the compound before menthol stimulation. The potency of potential CMR-1 inhibitors is quantified by measuring decrease of fluorescence.
# T1 sequence (Q7Z2W7 whole entry): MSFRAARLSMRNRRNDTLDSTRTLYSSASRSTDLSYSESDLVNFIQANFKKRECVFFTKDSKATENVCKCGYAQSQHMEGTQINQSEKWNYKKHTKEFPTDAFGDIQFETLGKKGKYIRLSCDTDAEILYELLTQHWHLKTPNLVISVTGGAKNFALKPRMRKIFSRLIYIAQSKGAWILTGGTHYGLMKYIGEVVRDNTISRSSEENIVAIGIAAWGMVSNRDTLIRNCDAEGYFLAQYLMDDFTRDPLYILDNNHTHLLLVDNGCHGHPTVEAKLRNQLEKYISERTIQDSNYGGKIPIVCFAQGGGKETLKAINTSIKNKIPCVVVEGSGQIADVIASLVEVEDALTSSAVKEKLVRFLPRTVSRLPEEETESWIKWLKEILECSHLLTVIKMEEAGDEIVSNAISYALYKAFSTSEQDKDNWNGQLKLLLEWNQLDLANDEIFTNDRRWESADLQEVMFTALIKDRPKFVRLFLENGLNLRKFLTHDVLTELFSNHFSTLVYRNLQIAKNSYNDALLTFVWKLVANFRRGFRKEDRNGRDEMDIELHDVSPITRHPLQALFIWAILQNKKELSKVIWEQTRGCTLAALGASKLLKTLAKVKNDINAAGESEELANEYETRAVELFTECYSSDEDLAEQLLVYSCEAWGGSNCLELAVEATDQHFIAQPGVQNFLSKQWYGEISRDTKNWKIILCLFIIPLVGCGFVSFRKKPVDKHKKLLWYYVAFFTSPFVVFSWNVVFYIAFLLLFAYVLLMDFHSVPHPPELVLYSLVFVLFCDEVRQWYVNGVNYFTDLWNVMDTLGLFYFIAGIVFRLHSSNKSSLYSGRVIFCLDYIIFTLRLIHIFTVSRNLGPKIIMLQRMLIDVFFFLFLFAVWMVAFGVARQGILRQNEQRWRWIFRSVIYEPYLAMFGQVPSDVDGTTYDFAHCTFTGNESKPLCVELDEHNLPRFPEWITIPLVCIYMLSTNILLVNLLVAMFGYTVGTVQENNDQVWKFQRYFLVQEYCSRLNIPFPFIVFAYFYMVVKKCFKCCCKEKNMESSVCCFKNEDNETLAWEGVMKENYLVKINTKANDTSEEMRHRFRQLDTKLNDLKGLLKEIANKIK
row,Structure (SMILES),IC50 [µM]
1,COc1cc(CN(CCCNC(=O)OC(C)(C)C)C(=O)c2cccs2)ccc1OCc1ccc(F)cc1 [Example 10],0.07
2,"COc1cc(CN(CCN)C(=O)c2cccs2)ccc1OCc1ccccc1F [Example 17, N-(2-aminoethyl)-N-{4-[(2-fluorobenzyl)oxy]-3-methoxybenzyl}thiophene-2-carboxamide trifluoroacetate]",0.001
3,COc1cc(CN(CCN)C(=O)CC(C)(C)C)ccc1OCc1ccc(F)cc1F [Example 20],0.008
4,"COc1cc(CN(Cc2ccccc2)C(=O)c2ccccc2)ccc1OCc1ccc(F)cc1 [Example 38, N-benzyl-N-{4-[(4-fluorobenzyl)oxy]-3-methoxybenzyl}benzamide]",0.04

# Results, then the compound that gave them:
row,IC50 [µM],Structure (SMILES)
1,0.001,"COc1cc(CN(CCN)C(=O)c2cccs2)ccc1OCc1ccccc1 [Example 3-1, N-(2-aminoethyl)-N-[4-(benzyloxy)-3-methoxybenzyl]thiophene-2-carboxamide hydrochloride]"
2,0.15,"COc1cc(CN(CCN)C(=O)c2ccccc2)ccc1OCc1ccccc1 [Example 4-1, N-(2-aminoethyl)-N-[4-(benzyloxy)-3-methoxybenzyl]benzamide trifluoroacetate]"

# From US20080214654A1, “Substituted Benzyloxy-Phenylmethylamide Derivatives” (Bayer HealthCare AG, priority 2004, published 2008)
